Test results published in patent publication US8334382B2, “Substituted biaryl piperazinyl-pyridine analogues” (Neurogen Corporation, priority 2004, dated 2012).

Target: T1, human capsaicin receptor (Homo sapiens, UniProt Q8NER1)
T1 construct: expressed in transfected cells; host or cells: HEK293, stably transfected with pBK-CMV construct
Test: Calcium mobilization assay, determination of antagonist activity
Assay type: cell-based
Conditions: capsaicin at EC50; cells expressing human capsaicin receptor; Example 6
In short: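 HEK293 cells stably expressing full-length human TRPV1, loaded with Fluo-3 AM in KRH buffer pH 7.4, preincubated with compound (final 1-5 µM) in the dark at room temperature for 0.5-6 h, then stimulated with capsaicin at its EC50. FLIPR fluorescence gave IC50 as concentration halving the capsaicin response.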

T1 sequence (Q8NER1 whole entry): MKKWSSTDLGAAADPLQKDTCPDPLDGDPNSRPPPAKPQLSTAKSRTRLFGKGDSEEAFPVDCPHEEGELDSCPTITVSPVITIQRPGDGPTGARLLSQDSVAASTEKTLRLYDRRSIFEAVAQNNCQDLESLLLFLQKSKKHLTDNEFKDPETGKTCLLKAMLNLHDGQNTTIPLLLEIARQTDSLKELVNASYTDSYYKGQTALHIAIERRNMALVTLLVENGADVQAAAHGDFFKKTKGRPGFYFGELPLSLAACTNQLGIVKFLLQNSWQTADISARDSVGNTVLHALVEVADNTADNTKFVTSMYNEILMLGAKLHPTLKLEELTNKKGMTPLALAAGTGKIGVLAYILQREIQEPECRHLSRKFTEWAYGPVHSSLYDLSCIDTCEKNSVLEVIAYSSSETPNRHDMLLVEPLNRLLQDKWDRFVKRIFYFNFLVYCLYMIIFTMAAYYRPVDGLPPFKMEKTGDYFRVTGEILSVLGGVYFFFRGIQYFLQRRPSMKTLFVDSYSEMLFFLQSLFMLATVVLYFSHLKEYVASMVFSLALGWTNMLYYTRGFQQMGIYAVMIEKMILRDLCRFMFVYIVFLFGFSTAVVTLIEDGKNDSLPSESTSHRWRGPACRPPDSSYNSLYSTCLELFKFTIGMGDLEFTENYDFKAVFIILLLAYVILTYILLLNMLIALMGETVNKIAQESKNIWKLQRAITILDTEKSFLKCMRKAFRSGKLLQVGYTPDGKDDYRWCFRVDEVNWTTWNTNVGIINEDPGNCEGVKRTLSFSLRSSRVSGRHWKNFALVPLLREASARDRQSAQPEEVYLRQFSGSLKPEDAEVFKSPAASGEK

Cc1cc(CO)cnc1N1CCN(c2cc(-c3ccccc3)nc(N3CCCC3C)n2)[C@H](C)C1 (stereo partly drawn) [Example 63, (5-Methyl-6-{3-(R)-methyl-4-[2-(2-methyl-pyrrolidin-1-yl)-6-phenyl-pyrimidin-4-yl]-piperazin-1-yl}-pyridin-3-yl)-methanol]
IC50: ≤ 1000 nM

Cc1cccc(-c2cc(N3CCN(c4ncc(CO)cc4C)C[C@H]3C)nc(N3CCCC3C)n2)c1 (stereo partly drawn) [Example 64, (5-Methyl-6-{3-(R)-methyl-4-[2-(2-methyl-pyrrolidin-1-yl)-6-m-tolyl-pyrimidin-4-yl]-piperazin-1-yl}-pyridin-3-yl)-methanol]
IC50: ≤ 1000 nM

Cc1cc(CO)cnc1N1CCN(c2cc(-c3ccncc3)nc(N3CCCC3C)n2)[C@H](C)C1 (stereo partly drawn) [Example 65, (5-Methyl-6-{3-(R)-methyl-4-[2-(2-methyl-pyrrolidin-1-yl)-6-pyridin-4-yl-pyrimidin-4-yl]-piperazin-1-yl}-pyridin-3-yl)-methanol]
IC50: ≤ 1000 nM

Cc1cc(CO)cnc1N1CCN(c2cc(-c3ccnc(C(C)C)c3)nc(N3CCCC3C)n2)[C@H](C)C1 (stereo partly drawn) [Example 66, (6-{4-[6-(2-Isopropyl-pyridin-4-yl)-2-(2-methyl-pyrrolidin-1-yl)-pyrimidin-4-yl]-3-(R)-methyl-piperazin-1-yl}-5-methyl-pyridin-3-yl)-methanol]
IC50: ≤ 1000 nM

Cc1cc(CO)cnc1N1CCN(c2cc(-c3ccc(F)cc3)nc(N(C)C)n2)[C@H](C)C1 [Example 67, (6-{4-[2-Dimethylamino-6-(4-fluoro-phenyl)-pyrimidin-4-yl]-3-(R)-methyl-piperazin-1-yl}-5-methyl-pyridin-3-yl)-methanol]
IC50: ≤ 1000 nM

Cc1cc(C(=O)O)cnc1N1CCN(c2cc(-c3ccccc3)nc(N3CCCC3C)n2)[C@H](C)C1 (stereo partly drawn) [Example 68, 5-Methyl-6-{3-(R)-methyl-4-[2-(2-methyl-pyrrolidin-1-yl)-6-phenyl-pyrimidin-4-yl]-piperazin-1-yl}-nicotinic acid]
IC50: ≤ 1000 nM

Cc1cccc(-c2cc(N3CCN(c4ncc(C(=O)O)cc4C)C[C@H]3C)nc(N3CCCC3C)n2)c1 (stereo partly drawn) [Example 69, 5-Methyl-6-{3-(R)-methyl-4-[2-(2-methyl-pyrrolidin-1-yl)-6-m-tolyl-pyrimidin-4-yl]-piperazin-1-yl}-nicotinic acid]
IC50: ≤ 1000 nM

Cc1cc(C(=O)O)cnc1N1CCN(c2cc(-c3ccncc3)nc(N3CCCC3C)n2)[C@H](C)C1 (stereo partly drawn) [Example 70, 5-Methyl-6-{3-(R)-methyl-4-[2-(2-methyl-pyrrolidin-1-yl)-6-pyridin-4-yl-pyrimidin-4-yl]-piperazin-1-yl}-nicotinic acid]
IC50: ≤ 1000 nM

Cc1cc(CO)cnc1N1CCN(c2cc(-c3ccccc3)nc(N3CCCC3C)n2)CC1 (stereo not drawn) [Example 71, (5-Methyl-6-{4-[2-(2-methyl-pyrrolidin-1-yl)-6-phenyl-pyrimidin-4-yl]-piperazin-1-yl}-pyridin-3-yl)-methanol]
IC50: ≤ 1000 nM

Cc1cccc(-c2cc(N3CCN(c4ncc(CO)cc4C)CC3)nc(N3CCCC3C)n2)c1 (stereo not drawn) [Example 72, (5-Methyl-6-{4-[2-(2-methyl-pyrrolidin-1-yl)-6-m-tolyl-pyrimidin-4-yl]-piperazin-1-yl}-pyridin-3-yl)-methanol]
IC50: ≤ 1000 nM

Cc1cc(CO)cnc1N1CCN(c2cc(-c3ccncc3)nc(N3CCCC3C)n2)CC1 (stereo not drawn) [Example 73, (5-Methyl-6-{4-[2-(2-methyl-pyrrolidin-1-yl)-6-pyridin-4-yl-pyrimidin-4-yl]-piperazin-1-yl}-pyridin-3-yl)-methanol]
IC50: ≤ 1000 nM

Cc1cc(CO)cnc1N1CCN(c2cc(-c3ccnc(C(C)C)c3)nc(N3CCCC3C)n2)CC1 (stereo not drawn) [Example 74, (6-{4-[6-(2-Isopropyl-pyridin-4-yl)-2-(2-methyl-pyrrolidin-1-yl)-pyrimidin-4-yl]-piperazin-1-yl}-5-methyl-pyridin-3-yl)-methanol]
IC50: ≤ 1000 nM

Cc1cc(C(=O)O)cnc1N1CCN(c2cc(-c3ccccc3)nc(N3CCCC3C)n2)CC1 (stereo not drawn) [Example 75, 5-Methyl-6-{4-[2-(2-methyl-pyrrolidin-1-yl)-6-phenyl-pyrimidin-4-yl]-piperazin-1-yl}-nicotinic acid]
IC50: ≤ 1000 nM

Cc1cccc(-c2cc(N3CCN(c4ncc(C(=O)O)cc4C)CC3)nc(N3CCCC3C)n2)c1 (stereo not drawn) [Example 76, 5-Methyl-6-{4-[2-(2-methyl-pyrrolidin-1-yl)-6-m-tolyl-pyrimidin-4-yl]-piperazin-1-yl}-nicotinic acid]
IC50: ≤ 1000 nM

Cc1cc(C(=O)O)cnc1N1CCN(c2cc(-c3ccncc3)nc(N3CCCC3C)n2)CC1 (stereo not drawn) [Example 77, 5-Methyl-6-{4-[2-(2-methyl-pyrrolidin-1-yl)-6-pyridin-4-yl-pyrimidin-4-yl]-piperazin-1-yl}-nicotinic acid]
IC50: ≤ 1000 nM

Cc1cc(C(=O)O)cnc1N1CCN(c2cc(-c3ccnc(C(C)C)c3)nc(N3CCCC3C)n2)CC1 (stereo not drawn) [Example 78, 6-{4-[6-(2-Isopropyl-pyridin-4-yl)-2-(2-methyl-pyrrolidin-1-yl)-pyrimidin-4-yl]-piperazin-1-yl}-5-methyl-nicotinic acid]
IC50: ≤ 1000 nM

CCOC(=O)c1cnc(N2CCN(c3cc(-c4ccc(F)c(Cl)c4)ncn3)[C@H](C)C2)c(Cl)c1 [Example 79, 5-Chloro-6-{4-[6-(3-chloro-4-fluoro-phenyl)-pyrimidin-4-yl]-3-(R)-methyl-piperazin-1-yl}-nicotinic acid ethyl ester]
IC50: ≤ 1000 nM

Cc1cc(C(=O)O)cnc1N1CCN(c2cc(-c3ccnc(C(C)C)c3)nc(N3CCCC3C)n2)[C@H](C)C1 (stereo partly drawn) [Example 80, 6-{4-[6-(2-Isopropyl-pyridin-4-yl)-2-(2-methyl-pyrrolidin-1-yl)-pyrimidin-4-yl]-3-(R)-methyl-piperazin-1-yl}-5-methyl-nicotinic acid]
IC50: ≤ 1000 nM

Cc1cc(C(=O)O)cnc1N1CCN(c2cc(-c3ccc(F)cc3)nc(N(C)C)n2)[C@H](C)C1 [Example 81, 6-{4-[2-Dimethylamino-6-(4-fluoro-phenyl) - pyrimidin-4-yl]-3-(R)-methyl-piperazin-1-yl}-5-methyl-nicotinic acid]
IC50: ≤ 1000 nM

Cc1cc(C(N)=O)cnc1N1CCN(c2cc(-c3ccccc3)nc(N3CCCC3C)n2)[C@H](C)C1 (stereo partly drawn) [Example 82, 5-Methyl-6-{3-(R)-methyl-4-[2-(2-methyl-pyrrolidin-1-yl)-6-phenyl-pyrimidin-4-yl]-piperazin-1-yl}-nicotinamide]
IC50: ≤ 1000 nM

Cc1cc(C(N)=O)cnc1N1CCN(c2cc(-c3ccc(F)cc3)nc(N(C)C)n2)[C@H](C)C1 [Example 83, 6-{4-[2-Dimethylamino-6-(4-fluoro-phenyl)-pyrimidin-4-yl]-3-(R)-mcthyl-piperazin-1-yl}-5-methyl-nicotinamide]
IC50: ≤ 1000 nM

Cc1cc(C(N)=O)cnc1N1CCN(c2cc(-c3ccccc3)nc(N(C)C)n2)[C@H](C)C1 [Example 84, 6-[4-(2-Dimethylamino-6-phenyl-pyrimidin-4-yl)-3-(R)-methyl-piperazin-1-yl]-5-methyl-nicotinamide]
IC50: ≤ 1000 nM

Cc1cc(C(N)=O)cnc1N1CCN(c2cc(-c3ccncc3)nc(N(C)C)n2)[C@H](C)C1 [Example 85, 6-[4-(2-Dimethylamino-6-pyridin-4-yl-pyrimidin-4-yl)-3-(R)-methyl-piperazin-1-yl]-5-methyl-nicotinamide]
IC50: ≤ 1000 nM

C[C@@H]1CN(c2ncc(C(N)=O)cc2Cl)CCN1c1cc(-c2ccc(F)c(Cl)c2)ncn1 [Example 86, 5-Chloro-6-{4-[6-(3-chloro-4-fluoro-phenyl)-pyrimidin-4-yl]-3-(R)-methyl-piperazin-1-yl}-nicotinamide]
IC50: ≤ 1000 nM
